≈ marks a conversion by molar mass, not a printed value. Like-named read-outs stand apart in the source and are kept apart here. Square brackets hold non-standard residues; d marks the D form. Peptide text beside a SMILES is read from it. Nspe = C[C@H](NCC(=O)O)c1ccccc1; NDecylGly = CCCCCCCCCCNCC(=O)O; Nlys = NCCCCNCC(=O)O
How the values were obtained:
MDR ESKAPE pathogens = details: ref Nielsen et al. [2022]; cited from earlier work
Description: TM8, TM15, and TM19 featured terminal alkyl tails of either N-decyl or N-tridecyl, while all of them contained chiral aromatic Nspe along with NLys residues. Similarly, TM2, TM4, TM12, TM14, and TM19 w ... || Lipopeptoids can self-assemble into micellar macromolecules due to the hydrophobic tail domains driven by the intermolecular hydrophobic interactions. […] In a ...

En. cloacae 003 = system: En. cloacae 003
Procedure, shortened: (§1)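 Bacteria were suspended at 5 × 10^5 CFU ml^−1 in CAMHB for antibiotics or MHB for peptidomimetics, then incubated at 37°C, 120 rpm for 16–20 h. Suspensions were log10 diluted and plated on Trypticase Soya Agar with phosphatidylcholine and Tween 80 for MBC.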

P. aeruginosa 33 = system: P. aeruginosa 33
Procedure, shortened: as §1

[1] = system: Enteroc. faecalis NCTC 13 379
Procedure, shortened: as §1

S. aureus 117 = system: S. aureus 117
Procedure, shortened: as §1

E. coli 0015 = system: E. coli 0015
Procedure, shortened: as §1

A. baumannii 007 = system: A. baumannii 007
Procedure, shortened: as §1

E. coli 0011 = system: E. coli 0011
Procedure, shortened: as §1

A. baumannii 005 = system: A. baumannii 005
Procedure, shortened: as §1

S. aureus 04 = system: S. aureus 04
Procedure, shortened: as §1

[2] = system: C. auris CBS12373 biofilm; assay: Initial biofilm inhibition, crystal violet assay; format: cell-based, Candida auris; details: crystal violet staining
Description: (§2) Another set of experiments was conducted under similar conditions similar to those used for MTT assay.

C. auris CBS 10913 [3] = assay: Sorbitol protection assay; format: cell-based, Candida auris; details: CBS10913
Description: Caspofungin served as a positive control for the assay (Leite et al. [2014]).

[4] = system: C. auris CBS12373 biofilm; format: cell-based, Candida auris; details: for Mature biofilm inhibition, blank corrected 570 nm, av. of readings: MTT absorbance
Description: To assess disruption of mature biofilms, 2 × 10^5 cells were cultured for 2 h in 96-well flat bottom microtiter plates at 37°C, washed, then incubated for 48 h in fresh media to form mature biofilm. […] For each activity test, the metabolic activities of the yeast cells in biofilms were measured by MTT reduction assay after washing the disrupted biofilm with PBS (Srivastava and Ahmad [2020]).

[5] = system: C. auris CBS12373 biofilm; format: cell-based, Candida auris
Description: as §2

[6] = system: C. auris CBS12373 biofilm; assay: Anti-adherence (biofilm prevention), MTT reduction assay; format: cell-based, Candida auris
Description: Finally, 3-(4,5-Dimethylthiazol 2-yl)-2,5-diphenyltetrazolium bromide (MTT) reduction assay was performed to observe the metabolic activities of C. auris.

C. auris CBS 10913 [7] = assay: microbe, parasite or virus in culture; format: cell-based, Candida auris; details: CBS 10913, 48 h
Description: Amphotericin B was tested in parallel as a positive control (Ramesh et al. [2023]).

[8] = system: S. aureus, K. pneumoniae, P. aeruginosa, and En. cloacae biofilm; details: ref Nielsen et al. [2022]; cited from earlier work
Description: Another way microbes can acquire tolerance and become resistant to antimicrobials is by the production of biofilms. In biofilms, microbes switch from planktonic state to sessile form, where they are encased in an extracellular polymeric substance matrix, thereby being protected from stressful environmental conditions (Di Fermo et al. [2024]). Most ESKAPEE pathogens and C. auris form antimicrobial tolerant biofilms associated with device-associated infections (Kean and Ramage [2019], Sarkar et al. [2024]). The antibiofilm activity of some of these peptoids has already been studied against ESKAP ...

[9] = system: C. auris CBS12373 biofilm; assay: Initial biofilm inhibition, MTT reduction assay; format: cell-based, Candida auris
[10] = system: MBL phenotypes of A. baumannii
Description: Briefly, bacteria were suspended in cation-adjusted Mueller–Hinton broth (CAMHB; Oxoid, UK) for antibiotics, or MHB (Oxoid, UK) for peptidomimetics to obtain 5 × 10^5 colony forming unit (CFU) ml^−1. […] Positive controls contained only microbes, and blanks contained only media. Microbial suspensions (100 µl) were added to wells, plates wrapped, and incubated at 37°C, 120 rpm for 16–20 h. […] Geometric mean MIC of the peptoids were calculated to evaluate the broad overview of antimicrobial activity across the pathogens.

[11] = CBS 10 913, RPMI 1640 with MOPS, 5 × 10^3 CFU ml^−1, ≥90% reduction (≥50% for fluconazole)
[12] = En. cloacae 003, MHB (melimine/Mel4 with 0.2% BSA, 0.01% acetic acid), mean MIC
[13] = Enteroc. faecalis NCTC 13 379, MHB (melimine/Mel4 with 0.2% BSA, 0.01% acetic acid), mean MIC
[14] = E. coli 0015, MHB (melimine/Mel4 with 0.2% BSA, 0.01% acetic acid), mean MIC
[15] = A. baumannii 007, MHB (melimine/Mel4 with 0.2% BSA, 0.01% acetic acid), mean MIC
[16] = E. coli 0011, MHB (melimine/Mel4 with 0.2% BSA, 0.01% acetic acid), mean MIC
[17] = A. baumannii 005, MHB (melimine/Mel4 with 0.2% BSA, 0.01% acetic acid), mean MIC

In the case of CCCCCCCCCCNCC(=O)N(CCCCN)CC(=O)N(CC(=O)N(CC(=O)N(CCCCN)CC(=O)N(CC(=O)N(CC(N)=O)[C@@H](C)c1ccccc1)[C@@H](C)c1ccccc1)[C@@H](C)c1ccccc1)[C@@H](C)c1ccccc1 [TM8] (H-[NDecylGly][Nlys][Nspe][Nspe][Nlys][Nspe][Nspe]-NH2), the “MIC against C. auris” value (C. auris CBS10913; [11]) is reported as 7.8 µg/mL, the “MIC against C. auris” value (C. auris CBS10913; CBS10913) is reported as 7.0 µM and the “MIC at high cell density” value (C. auris CBS10913; CBS10913) is reported as 15.6 µg/mL (≈ 14 µM). For the same compound, the “MIC against MDR ESKAPE pathogens” value (MDR ESKAPE pathogens) was < 13 µg/mL, the MIC of peptidomimetics (En. cloacae 003) was 7.0 µM and the MIC of peptidomimetics (En. cloacae 003; [12]) was 7.8 µg/mL. The MIC of peptidomimetics (P. aeruginosa 33; 33) was 3.5 µmol/L, the MIC of peptidomimetics (P. aeruginosa 33; P. aeruginosa 33, MHB (melimine/Mel4 with 0.2% BSA, 0.01% acetic acid), mean MIC) was 3.9 µg/mL and the MIC of peptidomimetics [1, 13] was 7.8 µg/mL. The MIC of peptidomimetics ([1]; NCTC 13) was 7.0 µM, the MIC of peptidomimetics (S. aureus 117; 117) was 3.5 µM and the MIC of peptidomimetics (S. aureus 117; S. aureus 117, MHB (melimine/Mel4 with 0.2% BSA, 0.01% acetic acid), mean MIC) was 3.9 µg/mL. The MIC of peptidomimetics (E. coli 0015; 0015) was 7.0 µM, the MIC of peptidomimetics (E. coli 0015; [14]) was 7.8 µg/mL and the MIC of peptidomimetics (A. baumannii 007; 007) was 3.5 µM. It also gave an MIC of peptidomimetics (A. baumannii 007; [15]) of 3.9 µg/mL, an MIC of peptidomimetics (E. coli 0011; 0011) of 14.0 µM and an MIC of peptidomimetics (E. coli 0011; [16]) of 15.6 µg/mL. It also gave an MIC of peptidomimetics (A. baumannii 005; 005) of 7.0 µM, an MIC of peptidomimetics (A. baumannii 005; [17]) of 7.8 µg/mL and an MIC of peptidomimetics (S. aureus 04; 04) of 3.5 µM. The MIC of peptidomimetics (S. aureus 04; S. aureus 004, MHB (melimine/Mel4 with 0.2% BSA, 0.01% acetic acid), mean MIC) was 3.9 µg/mL, the “MBIC for initial biofilm” value [2] was 31.25 µg/mL and the “MIC in the presence of sorbitol” value (C. auris CBS 10913 [3]) was 7.8 µg/mL. The MIC without sorbitol (C. auris CBS 10913 [3]) was 7.8 µg/mL (≈ 6.99 µM), the “Biofilm tolerance factor-eradication (MBEC/MIC)” value ([4]; C. auris CBS12373, MTT) was 4 and the “Mature biofilm MBEC” value ([4]; CBS12373 biofilm, 48 h) was 62.5 µg/mL. The “Mature biofilm inhibition, blank corrected 570 nm, av. of readings” value (“Mature biofilm inhibition” below) ([4]; agent at 0.976562 (growth control 1.115)) was 1.684, the “Mature biofilm inhibition” value ([4]; agent at 1.95312 (growth control 1.115)) was 1.307 and the “Mature biofilm inhibition” value ([4]; agent at 3.90625 (growth control 1.115)) was 0.871. For the same compound, the “Mature biofilm inhibition” value ([4]; agent at 7.8125 (growth control 1.115)) was 0.456, the “Mature biofilm inhibition” value ([4]; agent at 15.625 (growth control 1.115)) was 0.49 and the “Mature biofilm inhibition” value ([4]; agent at 31.25 (growth control 1.115)) was 0.129. For the same compound, the “Mature biofilm inhibition” value ([4]; agent at 62.5 (growth control 1.115)) was 0, the “Mature biofilm inhibition” value ([4]; agent at 125 (growth control 1.115)) was -0.0001 and the “Mature biofilm inhibition” value ([4]; agent at 250 (growth control 1.115)) was 0.02. The “Mature biofilm inhibition” value ([4]; agent at 500 (growth control 1.115)) was 0.02, the “MBEC for mature biofilm” value [5] was 125 µg/mL and the “Biofilm tolerance factor-prevention (BPC/MIC)” value [6] was 8. The “Anti-adherence (BPC)” value ([6]; 2 h adhesion with agent, 48 h growth, ≥90% reduction) was 125 µg/mL, the “MIC in the absence of ergosterol” value (C. auris CBS 10913 [7]) was 7.8 µg/mL and the “MIC in the presence of exogenous ergosterol” value (C. auris CBS 10913 [7]) was 31.25 µg/mL. For the same compound, the “Concentration with significant inhibition of biofilm formation” value [8] was 1.56 µg/mL, the “Biofilm tolerance factor-inhibition (MBIC/MIC)” value [9] was 2 and the MIC ([10]; MBL phenotypes of) was ≤ 7.8 µg/mL.

In the case of C[C@@H](c1ccccc1)N(CC(N)=O)C(=O)CN(C(=O)CN(CCCCN)C(=O)CN(C(=O)CN(C(=O)CN(CCCCN)C(=O)CN(C(=O)CN(C(=O)CN(CCCCN)C(=O)CN(C(=O)CN(C(=O)CNCCCCN)[C@@H](C)c1ccccc1)[C@@H](C)c1ccccc1)[C@@H](C)c1ccccc1)[C@@H](C)c1ccccc1)[C@@H](C)c1ccccc1)[C@@H](C)c1ccccc1)[C@@H](C)c1ccccc1 [TM1] (H-[Nlys][Nspe][Nspe][Nlys][Nspe][Nspe][Nlys][Nspe][Nspe][Nlys][Nspe][Nspe]-NH2), the “MIC against C. auris” value (C. auris CBS10913; [11]) is reported as 15.6 µg/mL, the “MIC against C. auris” value (C. auris CBS10913; CBS10913) is reported as 8.6 µM and the MIC of peptidomimetics (En. cloacae 003) is reported as 34.4 µM. For the same compound, the MIC of peptidomimetics (En. cloacae 003; [12]) was 62.5 µg/mL, the MIC of peptidomimetics (P. aeruginosa 33) was 15.6 (8.6) µg ml^−1 and the MIC of peptidomimetics (P. aeruginosa 33; 33) was 8.6 µmol/L. The MIC of peptidomimetics [1, 13] was 31.3 µg/mL, the MIC of peptidomimetics ([1]; Enteroc. faecalis NCTC 13 379, value in brackets) was 17.2 µM and the MIC of peptidomimetics (S. aureus 117; 117) was 7.8 µg/mL. It also gave an MIC of peptidomimetics (E. coli 0015; 0015) of 17.2 µM, an MIC of peptidomimetics (E. coli 0015; [14]) of 31.3 µg/mL and an MIC of peptidomimetics (A. baumannii 007; 007) of 2.1 µM. It also gave an MIC of peptidomimetics (A. baumannii 007; [15]) of 3.9 µg/mL, an MIC of peptidomimetics (E. coli 0011; 0011) of 17.2 µM and an MIC of peptidomimetics (E. coli 0011; [16]) of 31.3 µg/mL. For the same compound, the MIC of peptidomimetics (A. baumannii 005; 005) was 2.1 µM, the MIC of peptidomimetics (A. baumannii 005; [17]) was 3.9 µg/mL and the MIC of peptidomimetics (S. aureus 04; 04) was 7.8 µg/mL. For the same compound, the MIC ([10]; MBL phenotypes of A. baumannii) was ≤ 7.8 µg/mL.

Source: PMC11879280, “Antimicrobial activity of peptoids against Metallo-β-lactamase-producing Klebsiella pneumoniae, Acinetobacter baumannii, Pseudomonas aeruginosa, and other WHO priority pathogens, including Candida auris” (Journal of Applied Microbiology, 2025)
